Test results: ChEMBL document CHEMBL1136350, “Design and synthesis of orally active inhibitors of TNF synthesis as anti-rheumatoid arthritis drugs” (Bioorg Med Chem Lett, 2003); call rule not given here

Experiments:
MONO-MAC-6 = experiment: Inhibitory activity against monomac6 (MM6) human monocytic cell line; type: functional, cell-based
[1] = Area under curve was determined in rat after oral administration at a concentration 30 mg/kg; type: ADME, organism-based; parameters: dose 30 mg/kg, route oral; details: in vivo
Rattus norvegicus = experiment: Area under curve was determined in rat after oral administration at a concentration 30 mg/kg; NA= Not active; type: ADME, organism-based; parameters: dose 30 mg/kg, route oral; details: in vivo
[2] = Cmax in dog plasma after 30mg/kg oral dose; type: ADME, organism-based, Canis lupus familiaris; parameters: dose 30 mg/kg, route oral
[3] = Cmax in rat plasma after 30mg/kg oral dose; type: ADME, organism-based; parameters: dose 30 mg/kg, route oral
Mus musculus [4] = experiment: Number of paws at risk inflamed by murine collagen -induced arthritis(MCIA) in mice after peroral administration at a concentration 45 mg/kg; type: functional; details: route oral
Mus musculus [5] = experiment: Number of paws at risk inflamed by murine collagen -induced arthritis(MCIA) in mice after peroral administration at a concentration 15 mg/kg; type: functional; details: route oral
Mus musculus [6] = experiment: Number of positive paws that was inflamed by murine collagen -induced arthritis(MCIA) in mice after peroral administration 13 day at a concentration 15 mg/kg; type: functional; details: route oral
Mus musculus [7] = experiment: Reduction of murine collagen -induced arthritis(MCIA) in mice after peroral administration at a concentration 15 mg/kg; type: functional; details: route oral
Mus musculus [8] = experiment: Number of paws at risk inflamed by murine collagen -induced arthritis(MCIA) in mice after peroral administration at a concentration 120 mg/kg; type: functional; details: route oral
[9] = Plasma concentration in dogs after 2 hr at 30mg/kg oral dose; type: ADME, organism-based, Canis lupus familiaris; details: dog, read-out: Conc_plasma
Mus musculus [10] = experiment: Number of paws at risk inflamed by murine collagen -induced arthritis(MCIA) in mice after peroral administration at a concentration 5 mg/kg; type: functional; details: route oral
[11] = Plasma concentration in rats after 7 hr at 30mg/kg oral dose; type: ADME, organism-based; details: rat, read-out: Conc_plasma
Mus musculus [12] = experiment: Inhibition of murine collagen -induced arthritis(MCIA) in mice after peroral administration at a concentration 45 mg/kg; type: functional; details: route oral
Mus musculus [13] = experiment: Number of positive paws that was inflamed by murine collagen -induced arthritis(MCIA) in mice after peroral administration 13 day at a concentration 5 mg/kg; type: functional; details: route oral
Mus musculus [14] = experiment: Inhibition of murine collagen -induced arthritis(MCIA) in mice after peroral administration at a concentration 15 mg/kg; type: functional; details: route oral
Mus musculus [15] = experiment: Inhibition of murine collagen -induced arthritis(MCIA) in mice after peroral administration at a concentration 120 mg/kg; type: functional; details: route oral
Mus musculus [16] = experiment: Reduction of murine collagen -induced arthritis(MCIA) in mice after peroral administration at a concentration 5 mg/kg; type: functional; details: route oral
Mus musculus [17] = experiment: Inhibition of murine collagen -induced arthritis(MCIA) in mice after peroral administration at a concentration 5 mg/kg; type: functional; details: route oral
Mus musculus [18] = experiment: Inhibition of murine collagen -induced arthritis(MCIA) in mice after peroral administration at a concentration 2 mg/kg; type: functional; details: route oral
Mus musculus [19] = experiment: Number of positive paws that was inflamed by murine collagen -induced arthritis(MCIA) in mice after peroral administration 13 day at a concentration 120 mg/kg; type: functional; details: route oral
Mus musculus [20] = experiment: Number of paws at risk inflamed by murine collagen -induced arthritis(MCIA) in mice after peroral administration at a concentration 2 mg/kg; type: functional; details: route oral
Mus musculus [21] = experiment: Number of positive paws that was inflamed by murine collagen -induced arthritis(MCIA) in mice after peroral administration 13 day at a concentration 45 mg/kg; type: functional; details: route oral
Mus musculus [22] = experiment: Number of positive paws that was inflamed by murine collagen -induced arthritis(MCIA) in mice after peroral administration 13 day at a concentration 2 mg/kg; type: functional; details: route oral
Mus musculus [23] = experiment: Reduction of murine collagen -induced arthritis(MCIA) in mice after peroral administration at a concentration 120 mg/kg; type: functional; details: route oral
Mus musculus [24] = experiment: Reduction of murine collagen -induced arthritis(MCIA) in mice after peroral administration at a concentration 2 mg/kg; type: functional; details: route oral
Mus musculus [25] = experiment: Reduction of murine collagen -induced arthritis(MCIA) in mice after peroral administration at a concentration 45 mg/kg; type: functional; details: route oral

In the case of COc1ccc(C2=CCN(S(=O)(=O)N3CCCC[C@@H]3C(=O)NO)CC2)cc1, the IC50 (MONO-MAC-6; Homo sapiens, MONO-MAC-6) is reported as 15 µM.
In the case of CCCc1ccc(C2=CCN(S(=O)(=O)N3CCCC[C@@H]3C(=O)NO)CC2)cc1, the IC50 (MONO-MAC-6; Homo sapiens, MONO-MAC-6) is reported as 2.6 µM.
With O=C(NO)[C@H]1CN(CC(F)(F)F)CCN1S(=O)(=O)N1CC=C(c2ccc(F)cc2)CC1 the IC50 (MONO-MAC-6; Homo sapiens, MONO-MAC-6) was 0.3 µM and the AUC [1] was 3260 ng·h/mL.
Work on O=C(NO)[C@H]1CCCCN1S(=O)(=O)N1CC=C(c2ccc(F)c(F)c2)CC1 yielded an IC50 (MONO-MAC-6; Homo sapiens, MONO-MAC-6) of 1.2 µM.
In the case of O=C(NO)[C@H]1CCCCN1S(=O)(=O)N1CC=C(c2ccccc2)CC1, the IC50 (MONO-MAC-6; Homo sapiens, MONO-MAC-6) is reported as 0.24 µM.
O=C(NO)[C@H]1CCCCN1S(=O)(=O)N1CC=C(c2ccc(Br)cc2)CC1 showed an IC50 (MONO-MAC-6; Homo sapiens, MONO-MAC-6) of 1.2 µM.
For O=C(NO)[C@H]1CNCCN1S(=O)(=O)N1CC=C(c2ccc(F)cc2)CC1, the IC50 (MONO-MAC-6; Homo sapiens, MONO-MAC-6) was 3.56 µM and the AUC (Rattus norvegicus) was “Not Active”.
Work on CCc1cccc(C2=CCN(S(=O)(=O)N3CCCC[C@@H]3C(=O)NO)CC2)c1 yielded an IC50 (MONO-MAC-6; Homo sapiens, MONO-MAC-6) of 0.32 µM.
C[C@@H](NS(=O)(=O)N1CC=C(c2ccc(Cl)cc2)CC1)C(=O)NO gave an IC50 (MONO-MAC-6; Homo sapiens, MONO-MAC-6) of 1.24 µM.
With O=C(NO)[C@H]1CCCCN1S(=O)(=O)N1CC=C(c2cccc(-c3ccccc3)c2)CC1 the IC50 (MONO-MAC-6; Homo sapiens, MONO-MAC-6) was 7.6 µM.
Work on O=C(NO)[C@H]1CCCCN1S(=O)(=O)N1CC=C(c2ccc(F)cc2)CC1 yielded a Cmax [2] of 117 ng/mL, an IC50 (MONO-MAC-6; Homo sapiens, MONO-MAC-6) of 0.3 µM and a Cmax [3] of 3060 ng/mL.
Molecule C[C@@H](NS(=O)(=O)N1CCC(c2ccc(Cl)cc2)CC1)C(=O)NO has an IC50 (MONO-MAC-6; Homo sapiens, MONO-MAC-6) of 5.8 µM.
Molecule CN(C)C(=O)N1CCN(S(=O)(=O)N2CC=C(c3ccc(F)cc3)CC2)[C@@H](C(=O)NO)C1 has a Severity (Mus musculus [4]) of 2.9, a Severity (Mus musculus [5]) of 2.8 and a Positive paws (Mus musculus [6]) of 41%. The inhibition in vivo at 15 mg/kg (Mus musculus [7]) was 49%, the Severity (Mus musculus [8]) was 1 and the concentration at 2 h [9] was 110 ng/mL. The Severity (Mus musculus [10]) was 2.4, the Cmax [2] was 182 ng/mL and the concentration at 7 h [11] was 233 ng/mL. It also gave a Max score (Mus musculus [12]) of 3.8, a Positive paws (Mus musculus [13]) of 30% and a Max score (Mus musculus [14]) of 4.5. For the same molecule, the Max score (Mus musculus [15]) was 0.3, the inhibition in vivo at 5 mg/kg (Mus musculus [16]) was 69% and the Max score (Mus musculus [17]) was 2.7. It also gave a Max score (Mus musculus [18]) of 2.9, an IC50 (MONO-MAC-6; Homo sapiens, MONO-MAC-6) of 0.2 µM and a Positive paws (Mus musculus [19]) of 4%. It also gave a Severity (Mus musculus [20]) of 2.7, an AUC [1] of 6180 ng·h/mL and a Positive paws (Mus musculus [21]) of 33%. It also gave a Cmax [3] of 1050 ng/mL, a Positive paws (Mus musculus [22]) of 27% and an inhibition in vivo at 120 mg/kg (Mus musculus [23]) of 96%. For the same molecule, the inhibition in vivo at 2 mg/kg (Mus musculus [24]) was 67% and the inhibition in vivo at 45 mg/kg (Mus musculus [25]) was 56%.
Work on O=C(NO)[C@H]1CN(C(=O)N2CCOCC2)CCN1S(=O)(=O)N1CC=C(c2ccc(F)cc2)CC1 yielded an IC50 (MONO-MAC-6; Homo sapiens, MONO-MAC-6) of 0.35 µM and an AUC [1] of 7940 ng·h/mL.
With O=C(NO)[C@H]1CCCCN1S(=O)(=O)N1CC=C(c2ccc(Oc3ccccc3)cc2)CC1 the IC50 (MONO-MAC-6; Homo sapiens, MONO-MAC-6) was 3.3 µM.
Work on CN(C)S(=O)(=O)N1CCN(S(=O)(=O)N2CC=C(c3ccc(F)cc3)CC2)[C@@H](C(=O)NO)C1 yielded an IC50 (MONO-MAC-6; Homo sapiens, MONO-MAC-6) of 0.25 µM and an AUC [1] of 3270 ng·h/mL.
In the case of O=C(NO)[C@H]1CCCCN1S(=O)(=O)N1CC=C(c2ccc(-c3ccccc3)cc2)CC1, the IC50 (MONO-MAC-6; Homo sapiens, MONO-MAC-6) is reported as 19 µM.
With CN(C)P(=O)(N(C)C)N1CCN(S(=O)(=O)N2CC=C(c3ccc(F)cc3)CC2)[C@@H](C(=O)NO)C1 the IC50 (MONO-MAC-6; Homo sapiens, MONO-MAC-6) was 0.51 µM and the AUC [1] was 1540 ng·h/mL.
CNC(=O)N1CCN(S(=O)(=O)N2CC=C(c3ccc(F)cc3)CC2)[C@@H](C(=O)NO)C1 showed an IC50 (MONO-MAC-6; Homo sapiens, MONO-MAC-6) of 0.12 µM and an AUC [1] of 1790 ng·h/mL.
COc1cccc(C2=CCN(S(=O)(=O)N3CCCC[C@@H]3C(=O)NO)CC2)c1 gave an IC50 (MONO-MAC-6; Homo sapiens, MONO-MAC-6) of 0.26 µM.
For O=C(NO)[C@H]1CCCCN1S(=O)(=O)N1CC=C(c2ccc(Cl)cc2)CC1 (stereo in doubt; 3), the IC50 (MONO-MAC-6; Homo sapiens, MONO-MAC-6) was 0.43 µM.
Molecule O=C(NO)[C@H]1CCCCN1S(=O)(=O)N1CC=C(c2ccc(Cl)cc2)CC1 (stereo in doubt; 6) has an IC50 (MONO-MAC-6; mono-mac-6) of 0.48 µM.
